For 6 compounds, Activity, Kb and viability results are on record in ChEMBL document CHEMBL1949663, “Effective and reversible DNA condensation induced by bifunctional molecules containing macrocyclic polyamines and naphthyl moieties” (Bioorg Med Chem, 2012).

Each structure is given as a SMILES string. The source made the active and inactive calls. The calls are words filed in the database; no cut-off is given here.

Data set [1] deals with Nucleic Acid. Nature of the data set: Induction of Escherichia coli pUC18 DNA condensation at 300 uM after 5 mins by agarose gel electrophoresis. The data set is classed as nucleic-acid assay.
The subject of data set [2] is Nucleic Acid. Nature of the data set: Induction of Escherichia coli pUC18 DNA condensation at 80 uM after 5 mins by agarose gel electrophoresis in presence of 10 to 400 mM NaCl. The data set is classed as nucleic-acid assay.
Data set [3] relates to Nucleic Acid. Nature of the data set: Intercalation at calf thymus DNA assessed as increase in viscosity by viscosity titration assay. The format is nucleic-acid assay. As to conditions: Bos taurus.
For data set [4], the system named is T98G. Nature of the data set: Cytotoxicity against human T98G cells at 30 to 120 uM after 24 hrs by MTT assay. The format is cell-based.
For data set [5], the system named is Nucleic Acid. Briefly: Induction of Escherichia coli pUC18 DNA condensation assessed as hydrodynamic diameter at 60 uM after 5 mins by dynamic light scattering analysis. The data set is classed as nucleic-acid assay.
In data set [6] the test system is Nucleic Acid. Briefly: Induction of Escherichia coli pUC18 DNA condensation assessed as hydrodynamic diameter at 120 uM after 5 mins by dynamic light scattering analysis. The data set is classed as nucleic-acid assay.
Data set [7] deals with HepG2. Nature of the data set: Cytotoxicity against human HepG2 cells at 30 to 120 uM after 24 hrs by MTT assay. The format is cell-based. As to conditions: hepg2, 24 h. For orientation: Formazan colour is commonly taken as a measure of viable cells.
The subject of data set [8] is Nucleic Acid. Nature of the data set: Reversible condensation of Escherichia coli pUC18 DNA assessed as release of condensed DNA at 120 uM incubated for 5 mins followed by addition of […] NaCl by agarose gel electrophoresis. The data set is classed as nucleic-acid assay.
For data set [9], the system named is Nucleic Acid. Briefly: Induction of Escherichia coli pUC18 DNA condensation assessed as diameter of DNA nano particles at 60 uM after 5 mins by atomic force microscopy. The data set is classed as nucleic-acid assay.
Data set [10] has as its system Nucleic Acid. Briefly: Induction of Escherichia coli pUC18 DNA condensation assessed as diameter of DNA nano particles at 120 uM after 5 mins by atomic force microscopy. The format is nucleic-acid assay.
Data set [11] deals with Nucleic Acid. Briefly: Binding affinity to calf thymus DNA assessed as fluorescence quenching after 2 mins by ethidium bromide displacement assay. The data set is classed as nucleic-acid assay. As to conditions: Bos taurus.
Data set [12] has as its system Nucleic Acid. Briefly: Induction of Escherichia coli pUC18 DNA condensation at 120 uM after 5 mins by agarose gel electrophoresis. The format is nucleic-acid assay.
For data set [13], the system named is Nucleic Acid. Nature of the data set: Induction of Escherichia coli pUC18 DNA condensation at above 120 uM after 5 mins by agarose gel electrophoresis. The format is nucleic-acid assay.
Data set [14] is described as follows: Cytotoxicity against human T98G cells assessed as cell viability at 120 uM after 24 hrs by MTT assay. Particulars: read-out: Activity. The data set is classed as cell-based.
The nature of data set [15]: Cytotoxicity against human HepG2 cells assessed as cell viability at 120 uM after 24 hrs by MTT assay. The data set is classed as cell-based. Particulars: read-out: Activity.

With `c1ccc2c(CN3CCCNCCCNCCC3)cccc2c1`, the outcome in data set [1] was inactive.
In the case of `c1ccc2c(CC(CN3CCCNCCCNCCC3)CN3CCCNCCCNCCC3)cccc2c1`, the outcome in data set [2] and in data set [3] was inactive. Moreover, the Activity result is “Toxic” in data set [4]; 105 nm in data set [5]; 146 nm in data set [6]; “Toxic” in data set [7]; 47 nm in [9]; 55 nm in [10]. Also, the outcome in data set [8] and in [12] was Active. The Kb in data set [11] was 1.2 ×10⁵ /M.
Regarding `c1ccc2c(CCCN3CCCNCCCNCCC3)cccc2c1`, the result in [13] was Active.
As for `c1c(CN2CCCNCCCNCCC2)nnn1CCCn1cc(CN2CCCNCCCNCCC2)nn1`, the outcome in data set [1] was inactive.
Take `c1ccc2c(CC(Cn3cc(CN4CCCNCCCNCCC4)nn3)Cn3cc(CN4CCCNCCCNCCC4)nn3)cccc2c1`: the result in data set [2] and in [3] was inactive. Besides, the viability at 24 h, 120 µM turned out to be 88% in data set [14] and 64% in data set [15]. For the same compound, the Activity in data set [5] was 181 nm; in [6], 222 nm; in [9], 49 nm; in data set [10], 56 nm. Also, the outcome in data set [8] and in data set [12] was Active. Besides, the Kb in data set [11] came out at 0.98 ×10⁵ /M.
As to `C1CNCCCN(CCCN2CCCNCCCNCCC2)CCCNC1`, the outcome in data set [1] was inactive.
